Laboratory results taken from ChEMBL document CHEMBL1144034, “Synthesis and anti-protozoal activity of C2-substituted polyazamacrocycles” (Bioorg Med Chem Lett, 2008).

Assays:
Trypanosoma brucei = experiment: Antiprotozoal activity against Trypanosoma brucei by Alamar blue assay; assay type: functional, organism-based
[1] = Partition coefficient, log P of the compound; assay type: physicochemical; details: octanol/water
[2] = Cytotoxicity against HEK cells; assay type: cell-based; details: Homo sapiens, HEK293
Plasmodium falciparum = experiment: Antiprotozoal activity against Plasmodium falciparum; assay type: functional, organism-based

C1CNCCNCCNCCN1
EC50 (Trypanosoma brucei): > 200 µM
logP [1]: -1.8
EC50 [2]: 5 µM
EC50 (Plasmodium falciparum): > 100 µM

O=[N+]([O-])c1ccc(C2CNCCNCCNCCN2)cc1 (configuration not stated)
EC50 (Trypanosoma brucei): > 200 µM
logP [1]: -0.4
EC50 [2]: > 200 µM
EC50 (Plasmodium falciparum): 13 µM

c1ccc(C2CNCCNCCNCCN2)cc1 (configuration not stated)
EC50 (Trypanosoma brucei): > 200 µM
logP [1]: -0.2
EC50 [2]: > 200 µM
EC50 (Plasmodium falciparum): 26 µM

CC(C)(C)C1CNCCNCCNCCN1 (configuration not stated)
EC50 (Trypanosoma brucei): 133 µM
logP [1]: -0.1
EC50 [2]: > 200 µM
EC50 (Plasmodium falciparum): > 100 µM

c1csc(C2CNCCNCCNCCN2)c1 (configuration not stated)
EC50 (Trypanosoma brucei): 72.3 µM
logP [1]: -0.4
EC50 [2]: > 200 µM
EC50 (Plasmodium falciparum): 46.7 µM

Brc1ccc(C2CNCCNCCNCCN2)cc1 (configuration not stated)
EC50 (Trypanosoma brucei): 21.8 µM
logP [1]: 0.7
EC50 [2]: > 200 µM
EC50 (Plasmodium falciparum): 5.8 µM

FC(F)(F)c1ccc(C2CNCCNCCNCCN2)cc1 (configuration not stated)
EC50 (Trypanosoma brucei): 6.8 µM
logP [1]: 0.8
EC50 [2]: 73 µM
EC50 (Plasmodium falciparum): 5 µM

Clc1ccc(C2CNCCNCCNCCN2)cc1 (configuration not stated)
EC50 (Trypanosoma brucei): 2.8 µM
logP [1]: 0.8
EC50 [2]: 181 µM
EC50 (Plasmodium falciparum): 2.3 µM

c1ccc2cc(C3CNCCNCCNCCN3)ccc2c1 (configuration not stated)
EC50 (Trypanosoma brucei): 6.9 µM
logP [1]: 1
EC50 [2]: > 200 µM
EC50 (Plasmodium falciparum): 1.7 µM

c1ccc2c(c1)ccc1cc(C3CNCCNCCNCCN3)ccc12 (configuration not stated)
logP [1]: 2.2
EC50 (Plasmodium falciparum): < 1.5 µM

FC(F)(F)c1cc(C2CNCCNCCNCCN2)cc(C(F)(F)F)c1 (configuration not stated)
EC50 (Trypanosoma brucei): 6.8 µM
logP [1]: 1.7
EC50 [2]: 61 µM
EC50 (Plasmodium falciparum): 4.8 µM

COc1ccc(C2CNCCNCCNCCN2)cc1 (configuration not stated)
EC50 (Trypanosoma brucei): > 200 µM
logP [1]: -0.1
EC50 [2]: > 200 µM
EC50 (Plasmodium falciparum): 26 µM

c1ccc2c(c1)Cc1cc(C3CNCCNCCNCCN3)ccc1-2 (configuration not stated)
EC50 (Trypanosoma brucei): 2.6 µM
logP [1]: 1.8
EC50 [2]: 26 µM
EC50 (Plasmodium falciparum): 1.3 µM

CCN(CC)CCCC(C)Nc1ccnc2cc(Cl)ccc12 (configuration not stated) [CHLOROQUINE]
EC50 (Plasmodium falciparum): 0.008 µM

N=C(N)c1ccc(OCCCCCOc2ccc(C(=N)N)cc2)cc1 [PENTAMIDINE]
EC50 (Trypanosoma brucei): 0.006 µM
